Row | SMILES | melting point [°C]
1 | CSCCC1N=C(c2ccccc2)c2cc(Cl)ccc2NC1=O (configuration not stated) | 184
2 | CCOC(=O)c1cn(C2CC2)c2c(C#N)c(F)c(F)cc2c1=O | 209 to 211
3 | Cc1ccc(S(=O)(=O)NC(=O)C2C(=O)CC(CC(C)C)CC2=O)cc1 (configuration not stated) | 128 to 130
4 | CCCCCCCCCCCCc1c(C)[nH]c(C(=O)OCC)c1C | 65 to 67
5 | COc1cc(-c2ccccc2)c(OC)cc1Nc1ncnc2cc(OC)c(OC)cc12 | 226 to 229
6 | CCOC(=O)C(C)(C)CCCCOc1cc(C)c(N=Nc2ccc([N+](=O)[O-])cc2)c(C)c1 | 89 to 90
7 | COc1ccccc1NC(=O)c1ccc([N+](=O)[O-])cc1 | 146 to 147
8 | COc1cccc2c(=O)n3c(cc12)S(=O)(=O)CCC3 | 251 to 252
9 | CCOC(=O)c1ccnc(NC(=O)CCc2ccccc2)c1 | 107 to 108
10 | Cc1ccsc1C(=O)Cc1ccc(C(F)(F)F)cc1[N+](=O)[O-] | 120 to 122
11 | COC(=O)COc1cccc2c1CCCC2=O | 82 to 83
12 | NNC1=Nc2ccc(C(F)(F)F)cc2C(c2ccccc2)=NC1 | 127
13 | Cc1nc(O)sc1C(=O)CBr | 162
14 | C=CCn1c(Br)c(C[C@H](NC(C)=O)C(=O)OC)c2c(Br)c(OC)c(Br)cc21 | 191 to 192
15 | CCOc1ccnc2c1c(C(C)=O)cn2S(=O)(=O)c1ccccc1 | 151 to 153
16 | CC1(C)CCC(O)(c2ccc(=O)[nH]c2)CC1 | 210 to 211
17 | CCC(CC)Nc1cc(C)nc(Oc2c(C)cc(C)cc2C)c1C(N)=O | 85 to 88
18 | Cc1oc(-c2ccccc2)nc1CCOc1ccc(CC(C(=O)O)c2ccccc2)cc1 (configuration not stated) | 124 to 125
19 | O=C(NC(=O)c1c(F)cccc1Cl)Nc1ccc(Br)cn1 | 207 to 213
20 | COc1ccc2cc(CCl)c(CCl)cc2c1Cl | 103
21 | CC1(c2cccc(Cl)c2)OC(C(=O)O)Oc2ccc(Cl)cc21 (configuration not stated) | 131
22 | O=C(O)c1ccc(-c2c3ccccc3nn2Cc2ccc(F)cc2)cc1 | 237 to 239

Row | SMILES | melting point [°C]
23 | O=C(C=Cc1ccc(OC(F)(F)F)cc1)N1CCc2c([nH]c3ccccc23)C1c1ccc2c(c1)OCO2 (configuration not stated) | 203 to 205
24 | COc1ccc2c(c1)CCC1C2CCC2(C)C(=NN(C)C)CCC12 (configuration not stated) | 98 to 100
25 | Cc1cnn(-c2ccccc2)c1-c1nn(-c2cccc(C(F)(F)F)c2)ccc1=O | 208 to 211
26 | O=C(c1ccc(F)cc1)N1CCC[C@H](c2nc(-c3ccccc3)no2)C1 | 78 to 79
27 | CCc1nc2c(cnn2CC)c(NC2CCOCC2)c1CNC(=O)c1cccc(C(=O)NCc2cc(Cl)cc(Br)c2)c1 | 109 to 112
28 | OCc1ccccc1-c1cc(-c2ccccc2)on1 | 68 to 70
29 | O=C(Nc1ccccc1)ONC1=Nc2ccc(Cl)cc2C(c2ccccc2F)=NC1 | 126 to 128
30 | CN1CCN(c2ccc(N/C=C3\C(=O)NC(=O)c4ccc(C#Cc5ccccc5)cc43)cc2)CC1 | 169 to 170
31 | O=[N+]([O-])c1nccn1CCCl | 85 to 87
32 | CCCCCCCCCCCCC(O)CN(CCC#N)CCCCCCCCCCCCN(CCC#N)CC(O)CCCCCCCCCCCC (configuration not stated) | 37 to 38
33 | COc1ccc(-c2c(CC(=O)O)c(-c3ccccc3)nn2-c2ccccc2)cc1 | 160 to 163
34 | CN(C)C(=O)N(C)c1nnc(SCc2ccccc2)s1 | 48 to 51
35 | CCCC[C@H](NC(=O)[C@H](CC(C)C)NC(=O)OCc1ccc(F)cc1)C(=O)CSCc1ccco1 | 67 to 68
36 | CC1=Cc2cc(-c3nnnn3C)ccc2OC1(C)C | 127 to 130
37 | CC(C)(C)OC(=O)N1CCCCc2ccc(Cl)nc21 | 166 to 168
38 | CCCN1CCCC1Cc1cccc(NC(N)=O)c1 (configuration not stated) | 101 to 104
39 | COC(=O)C1CCCN1S(=O)(=O)c1ccc(C)cc1 (racemic) | 93
40 | CCn1c(C(O)(C(C)C)C(C)C)nc(-c2ccncc2)c1-c1ccc(Cl)cc1 | 221 to 223
41 | O=CC=CC(=C(c1ccc(F)cc1)c1ccc(F)cc1)n1nnnc1-c1ccccc1 | 198 to 200
42 | Cc1ccc(-c2nn(-c3ccccc3)c(N)c2C#N)cc1 | 186 to 188
43 | NS(=O)(=O)c1ccccc1-c1cnoc1 | 165 to 167
44 | Cc1cc(C)cc(NC(=O)Cc2ccc(OC3(C(=O)O)CCOC3C)cc2)c1 (racemic) | 164 to 167

Next, values leading:

Row | melting point [°C] | SMILES
45 | 113 to 114 | COC(=O)c1c(-c2ccc(F)cc2)ccc2ccccc12
46 | 70 to 100 | Cc1ccnc(-c2c(C)noc2C)c1OC1SCC(O)C(O)C1O (configuration not stated)
47 | 138 to 140 | CC(C)CN(C=Nc1nnnc2c1ncn2C1CC(O)C(CO)O1)CC(C)C (configuration not stated)
48 | 149 to 150 | N#Cc1ccc(CC(=O)Cc2ccc(C#N)cc2)cc1
49 | 225 to 233 | CCC(=NNc1ccc(-c2ccc(=O)n(C)n2)cc1)c1ccc(O)cc1O
50 | 76 to 78 | COP(=O)(CC(=O)[C@H](Cc1ccccc1)NC(=O)OC(C)(C)C)OC
51 | 34 to 36 | CC(C)(CO)Cc1ccccc1
52 | 55 to 59 | CC(C)Cc1ccc(C(C)C(=O)ON(C(N)=O)C(C)c2ccoc2)cc1 (configuration not stated)
53 | 116 to 117 | N#Cc1ccccc1CN1CCSC1=O
54 | 159 to 160 | COc1cc(C(C)C)c2c(c1)S(=O)(=O)N(COC(=O)C1CCC(=O)N1)C2=O (configuration not stated)
55 | 152 to 154 | CC(CCC(O)C(C)(C)O)C1CCC2C3CCC4CC(O)CCC4(C)C3CCC12C (configuration not stated)
56 | 74 to 76 | Cc1ccc(-c2c(CO)n(CC(C)C)c(=O)c3ccc(OCc4ccccc4)cc23)cc1
57 | 111 | CCC(=O)NCC1Cc2cccc3cccc1c23 (configuration not stated)
58 | 42 to 45 | CC(Br)(CC(Cl)(Cl)Cl)c1cccc(Cl)n1 (configuration not stated)
59 | 172 to 180 | O=C1CC(NC(=O)C2CCCN3C(=O)CCC(NC(=O)c4ccccc4)C(=O)N23)C(OC2CCCC2)O1 (configuration not stated)
60 | 219 | COc1nc2cc(C)c(C)c(NS(C)(=O)=O)c2nc1OC
61 | 71 | O=[N+]([O-])c1cc(S(=O)(=O)Oc2ccccc2)ccc1Cl
62 | 158 to 161 | C=Cc1cc(C)cc(C)c1C1=C(O)C2(CCN(OC)CC2)N(C)C1=O
63 | 119 to 121 | C[C@H](O)Cc1ncc[nH]1
64 | 220 to 222 | CCCn1c(-c2c(Cl)cccc2Cl)nc(-c2ccncc2)c1-c1ccc(Cl)cc1

Row | melting point [°C] | SMILES
65 | 161 to 163 | CC(C)(C)c1ccc(C=NOCCOc2ccc(C(=O)O)c(O)c2)cc1
66 | 85 to 88 | CCCC(C)Nc1c([N+](=O)[O-])cc(S(C)(=O)=O)c(C)c1[N+](=O)[O-] (configuration not stated)
67 | 65 to 66 | CCCCCCCCC1C(=O)NC(=O)N1CCCCCCC(=O)O (configuration not stated)
68 | 132 to 133 | O=C(O)CCN(CCCOc1ccc(C(=O)O)cc1)c1ccc(Cl)cc1
69 | 160 | Cc1cccc(NC(=O)NCC(=O)N(CC(=O)N(C)c2ccc(Cl)cc2)c2ccccc2)c1
70 | 183 to 185 | CC(C#N)c1cc(O)cc2cc(-c3ccc(O)cc3)oc12 (configuration not stated)
71 | 132 | C=CCn1c2c(c3ccccc31)C(=O)C(Cn1ccnc1C)CC2 (configuration not stated)
72 | 65 to 66 | CCCCCc1c(C(C)C)nc(C(C)C)c(CO)c1-c1cccc(OC)c1
73 | 120 | COc1c(/C=C/c2ccc(C#N)cc2)c(C)cc2c1C(C)(C)CCC2(C)C
74 | 152 to 155 | CCCCOc1ccc2c(C(F)(F)F)c(OC)ccc2c1C(=O)N(C)CC(=O)O
75 | 252 to 255 | O=C1NC(=O)c2c1c(-c1ccccc1)cc1c2c2cc(O)ccc2n1CCCN1CCOCC1
76 | > 250 | COc1cc2cc(CO)nc(-c3ccnc(-n4nc(-c5cccnc5)c5ccccc5c4=O)c3)c2cc1OC
77 | 130 to 131 | CC(C)C(=O)NCCCCN1CCN(c2csc3cc(F)ccc23)CC1
78 | 92 | COCc1ccn2nc(SCc3ccccc3)nc2n1
79 | > 250 | NC(C(=O)O)C(=CF)c1c[nH]c2ccc(O)cc12 (configuration not stated)
80 | 142 to 143 | CCOCCNS(=O)(=O)NC(=O)OCc1ccc(OCCOC)cc1Oc1ncc(C(F)(F)F)cc1Cl
81 | 125 to 127 | COC(=O)c1nc(N(C)C)ccc1Oc1nc(OC)cc(OC)n1
82 | 207 to 209 | CCOC(=O)c1cn(-c2ccc(F)cc2C)c2c(C)c([N+](=O)[O-])c(F)cc2c1=O
83 | 77.5 to 78 | CCCC(SCC(=O)O)c1cc2c(cc1C)OCO2 (configuration not stated)
84 | 129 to 131 | Cc1c(Br)cccc1NS(=O)(=O)c1cc(S(=O)(=O)Nc2cccc(Br)c2C)c2cc(O)ccc2c1

Row | melting point [°C] | SMILES
85 | 104 to 105 | CC(=O)C=Cc1ccc(O)cc1
86 | 87 to 88 | CN[C@H]1CC[C@H](CO)CC1
87 | 128 to 129 | COC(=O)c1ccc(-n2cccc2)cc1
88 | 107 | CON=C(C)c1cc(C[C@H](NC(=O)c2c(Cl)cccc2Cl)C(=O)O)ccc1-c1ccccc1OC
89 | 249 to 250 | Cc1sc(C(=O)O)cc1NC(=O)Cc1ccccc1
90 | 110 to 111 | COC(=O)C=Cc1ccc(OCCN(C)c2ccccn2)c(F)c1
91 | 195 | Oc1ccc(-c2cccnc2)cc1
92 | 155 to 156 | COc1ccc(-c2cc(=O)c3c(O)cc(OCC4=COC(C)(C)O4)cc3o2)cc1OCC1=COC(C)(C)O1
93 | 78 to 79 | O=C(CCCCl)N(c1ccccc1)c1ccccc1
94 | 138 | C/C(=C\c1ccc(OC(C)C)cc1Oc1ncc(C(F)(F)F)cc1Cl)C(=O)NS(=O)(=O)NCCOC(C)C
95 | 83 to 84 | COc1ccc([C@@H]2Sc3cc(Cl)ccc3N(CCN(C)C)C(=O)[C@@H]2OCC(=O)OC(C)(C)C)cc1
96 | 130 to 131 | COc1ccnc2c1C(=O)CC(c1ccccc1)C2 (configuration not stated)
97 | 203 to 205 | CNC(=O)N1CCN(C(=O)CN2CCCC2=O)CC1
98 | 178 to 180 | COc1cc(C=Cc2conc2C)cc(Br)c1O
99 | 154 to 156 | Cc1nc2cc(-c3nn(C(C)c4oc5ccccc5c(=O)c4-c4cccc(F)c4)c4ncnc(N)c34)ccc2[nH]1 (configuration not stated)
100 | 236 to 238 | O=C1CCC2=C(c3ccc(Cl)cc3)c3ccccc3C2N1 (configuration not stated)
101 | 258 to 262 | CCOC(=O)c1c2n(c3cc(Br)c(F)cc3c1=O)CCS2
102 | 55 to 57 | CCC(=O)CSc1cc(C(C)(C)C)c(O)c(C(C)(C)C)c1

Reference: a melting point compilation (Tetko et al.; mined from patent text by program, amines drawn as free bases though some values may be those of a salt)
